Key:
Assay type in all cases: in vivo
sugarcane [1] = assay: Sugarcane ripening field studies, florpyrauxifen-benzyl and haloxyfop-P-methyl
ratoon sugarcane = assay: Ratoon sugarcane control field studies; conditions: for % Control: post application, 4 to 6 leaves, 50 to 60 cm
Description: In order to study the activity of Haloxyfop-P-methyl as possible herbicide for ratoon sugarcane control, field studies were carried out. Haloxyfop-P-methyl was tested at 124; 248; 373; 620 and 1240 g ai/ha plus mineral oil at 0.5% v/v and compared to key standard, as glyphosate (Glizmax Prime®) at 2160 g ae/ha. Trials were sprayed postemergence with 4 to 6 leaves or 50 to 60 cm of ratoon sugarcane regrowth and assessed percentage of control at 14; 30; 45 and 60 days after application (DAA).

sugarcane [2] = assay: Sugarcane ripening field studies, halauxifen-methyl plus haloxyfop-P-methyl; conditions: six field studies, 30 days after application, rate g ai/ha: halauxifen-methyl 2.16, mixture 27 + 2.16, haloxyfop-P-methyl 27, sulfometuron 15, trinexapac 250
[3] = 14.5 g ai/ha, single application 50 L/ha 60 days before harvest, 30 DAA
[4] = 14.5 g ai/ha, single application 50 L/ha 60 days before harvest, 45 DAA
[5] = 50 g ai/ha, single application 50 L/ha 60 days before harvest, 30 DAA
[6] = 50 g ai/ha, single application 50 L/ha 60 days before harvest, 45 DAA
[7] = 100 g ai/ha, single application 50 L/ha 60 days before harvest, 30 DAA
[8] = 100 g ai/ha, single application 50 L/ha 60 days before harvest, 45 DAA

SMILES: COC(=O)[C@@H](C)Oc1ccc(Oc2ncc(C(F)(F)F)cc2Cl)cc1 [Haloxyfop-P-methyl, haloxyfop-P-methyl]
- Gain POL (sugarcane [1]; [3]): 3.3%
- Gain Purity (sugarcane [1]; [3]): 13.0%
- Gain TRS (sugarcane [1]; [3]): 27.8 kg/ton
- Gain POL (sugarcane [1]; [4]): 6.7%
- Gain Purity (sugarcane [1]; [4]): 18.3%
- Gain TRS (sugarcane [1]; [4]): 49.6 kg/ton
- Gain POL (sugarcane [1]; [5]): 2.8%
- Gain Purity (sugarcane [1]; [5]): 8.1%
- Gain TRS (sugarcane [1]; [5]): 23.7 kg/ton
- Gain POL (sugarcane [1]; [6]): 4.4%
- Gain Purity (sugarcane [1]; [6]): 10.3%
- Gain TRS (sugarcane [1]; [6]): 39.9 kg/ton
- Gain POL (sugarcane [1]; [7]): 3.2%
- Gain Purity (sugarcane [1]; [7]): 7.2%
- Gain TRS (sugarcane [1]; [7]): 28.6 kg/ton
- Gain POL (sugarcane [1]; [8]): 4.0%
- Gain Purity (sugarcane [1]; [8]): 8.8%
- Gain TRS (sugarcane [1]; [8]): 36.7 kg/ton
- Gain Fiber (sugarcane [1]; 30 days after application, rate g ai/ha: haloxyfop-P-methyl 27, florpyrauxifen-benzyl 2.2, mixture 27 + 2.2, sulfometuron 15, trinexapac 250, untreated 0.6): 0.4%
- Gain POL (sugarcane [1]; 30 days after application, rate g ai/ha: haloxyfop-P-methyl 27, florpyrauxifen-benzyl 2.2, mixture 27 + 2.2, sulfometuron 15, trinexapac 250, untreated 2.8): 2.6%
- Gain Purity (sugarcane [1]; 30 days after application, rate g ai/ha: haloxyfop-P-methyl 27, florpyrauxifen-benzyl 2.2, mixture 27 + 2.2, sulfometuron 15, trinexapac 250, untreated 7.2): 6.1%
- Gain TRS (sugarcane [1]; 30 days after application, rate g ai/ha: haloxyfop-P-methyl 27, florpyrauxifen-benzyl 2.2, mixture 27 + 2.2, sulfometuron 15, trinexapac 250, untreated 25.2): 23.7 kg/ton
- Gain Fiber (sugarcane [1]; 45 days after application, rate g ai/ha: haloxyfop-P-methyl 27, florpyrauxifen-benzyl 2.2, mixture 27 + 2.2, sulfometuron 15, trinexapac 250, untreated 1.2): 0.1%
- Gain POL (sugarcane [1]; 45 days after application, rate g ai/ha: haloxyfop-P-methyl 27, florpyrauxifen-benzyl 2.2, mixture 27 + 2.2, sulfometuron 15, trinexapac 250, untreated 4.2): 4.4%
- Gain Purity (sugarcane [1]; 45 days after application, rate g ai/ha: haloxyfop-P-methyl 27, florpyrauxifen-benzyl 2.2, mixture 27 + 2.2, sulfometuron 15, trinexapac 250, untreated 7.7): 10.3%
- Gain TRS (sugarcane [1]; 45 days after application, rate g ai/ha: haloxyfop-P-methyl 27, florpyrauxifen-benzyl 2.2, mixture 27 + 2.2, sulfometuron 15, trinexapac 250, untreated 38.4): 39.9 kg/ton
- % Control (ratoon sugarcane; 124 g ai/ha, 14 DAA): 60.5%
- % Control (ratoon sugarcane; 124 g ai/ha, 30 DAA): 86.5%
- % Control (ratoon sugarcane; 124 g ai/ha, 45 DAA): 91.5%
- % Control (ratoon sugarcane; 124 g ai/ha, 60 DAA): 89.8%
- % Control (ratoon sugarcane; 248 g ai/ha, 14 DAA): 67.2%
- % Control (ratoon sugarcane; 248 g ai/ha, 30 DAA): 88.7%
- % Control (ratoon sugarcane; 248 g ai/ha, 45 DAA): 92.0%
- % Control (ratoon sugarcane; 248 g ai/ha, 60 DAA): 90.8%
- % Control (ratoon sugarcane; 373 g ai/ha, 14 DAA): 68.3%
- % Control (ratoon sugarcane; 373 g ai/ha, 30 DAA): 91.0%
- % Control (ratoon sugarcane; 373 g ai/ha, 45 DAA): 93.5%
- % Control (ratoon sugarcane; 373 g ai/ha, 60 DAA): 92.2%
- % Control (ratoon sugarcane; 620 g ai/ha, 14 DAA): 71.8%
- % Control (ratoon sugarcane; 620 g ai/ha, 30 DAA): 94.7%
- % Control (ratoon sugarcane; 620 g ai/ha, 45 DAA): 95.2%
- % Control (ratoon sugarcane; 620 g ai/ha, 60 DAA): 94.8%
- % Control (ratoon sugarcane; 1240 g ai/ha, 14 DAA): 74.5%
- % Control (ratoon sugarcane; 1240 g ai/ha, 30 DAA): 95.2%
- % Control (ratoon sugarcane; 1240 g ai/ha, 45 DAA): 96.3%
- % Control (ratoon sugarcane; 1240 g ai/ha, 60 DAA): 95.5%
- ratoon sugarcane control (ratoon sugarcane; rates from 373 to 1240 g ai/ha at 30 DAA): more than 90%
- Gain Fiber (sugarcane [2]; untreated 0.5): 0.7%
- Gain POL (sugarcane [2]; untreated 2.7): 2.9%
- Gain Purity (sugarcane [2]; untreated 6.8): 6.6%
- Gain TRS (sugarcane [2]; untreated 23.4): 24.7 kg/ton

Reference: patent US20260223848A1, “METHOD OF INCREASING SUGAR PRODUCTION FROM SUGARCANE” (CORTEVA AGRISCIENCE LLC, priority 2021, published 2026)
